Test results published in patent US20230129866A1 (PureTech LYT 100, Inc., priority 2020, published 2023).
Where two headings read alike, the source gives them in different places.

Tests used:
[1] = 200 mg SD-559 (pirfenidone) BID, Huang et al.; in ng/mL; cited from earlier work
[2] = cited from earlier work
[3] = test system: LPS-induced plasma IL-6; assay: LPS-induced plasma IL-6 after oral pretreatment in rats; assay type: in vivo, Sprague-Dawley rats; conditions: Mean ± St. Dev, n = 6-8; for Plasma IL-6 concentrations 4 hours after LPS: vehicle 13989 ± 6125; for Plasma IL-6 concentrations 1.5 hours after LPS: vehicle 40423 ± 8653
Procedure: (§1) LPS was diluted with sterile saline to […] and sonicated at 40° C. for 20 minutes to generate a stock solution and stored at 4° C. Each day of use, the stock solution was further diluted to 0.03 mg/mL in sterile saline.
(§2) Male Sprague-Dawley rats with indwelling femoral and jugular venous catheters (n=6-8 per dose and test article group) were used in this study. […] Sixty minutes after the oral dose, 0.03 mg/kg of LPS in 1 mL/kg saline was infused into the jugular vein.
(§3) Blood samples were collected from the femoral vein into heparin-coated syringes 15 minutes prior to the LPS infusion (45 minutes after oral doses of test article), 90 minutes after the LPS infusion and 4 hours after the LPS infusion. Plasma was prepared by centrifugation of the blood samples at 14,000 rpm for 10 minutes. Plasma samples were stored at −70 ° C. until analysis.

[4] = human, in vivo, po
Source text: Following screening, eligible healthy volunteer subjects were admitted to a single clinical study site and were randomized to 1 of 2 treatment sequences. […] In each period, a standardized breakfast was provided to subjects prior to administration of study drug (to compare the PK profiles in the clinically relevant fed state) and plasma samples were collected over a 48-hour period after dosing for evaluation of PK. Dosing between the 2 periods was separated by a minimum of 7 days. Subjects completed the study upon completion of the 48-hour post-dose assessments following dosing period 2.
All capsules were identical in size, shape, and external color.

[5] = humans, cited from earlier work
[6] = cited from earlier work; remark: listed apart in the source
[7] = rat, in vivo
Procedure: The original male TK animals received 1000 mg/kg of SD-559 on Day 1 and continued on study. The protocol was amended to add additional TK male animals in Group 6 for Day 1 collection of TK samples at 875 mg/kg.
Blood samples were collected from 3 subsets of 3 animals/sex on Day 1 and Day 28 at pre-dose, 0.25, 0.5, 1, 2, 4. 8 and 24 hours (hr) post-dose for groups 2 to 6 and from one subset of 3 animals/sex at 0.25 hr post-dose for the vehicle group (group 1). […] Non-compartmental analysis (NCA) of plasma concentration data was conducted using Phoenix® WinNonlin®, version 8.0.

[8] = test system: LPS-induced plasma TNFα; assay: LPS-induced plasma TNF-α after oral pretreatment in rats; assay type: in vivo, Sprague-Dawley rats; conditions: Mean ± St. Dev., n = 6-8; for Plasma TNFα concentrations 4 hours after LPS: vehicle 693 ± 553; for Plasma TNFα concentrations 1.5 hours after LPS: vehicle 75389 ± 29107
Procedure: as §1, §2, §3

[9] = Pirfenidone @801 mg, Rubino et al.
[10] = 30 mg/kg oral pretreatment 1 hour prior to LPS injection
[11] = 100 mg/kg oral pretreatment 1 hour prior to LPS injection
[12] = 300 mg/kg oral pretreatment 1 hour prior to LPS injection
[13] = Lancaster et al. 2017, frequencies as high as
[14] = multinational post-marketing study
[15] = single-center retrospective observational study, 351 patients

Compound: Cc1ccc(=O)n(-c2ccccc2)c1 [Pirfenidone, 5-methyl-1-phenyl-1H-pyridin-2-one]
- observed Cmax [1]: 2305
- AUC, % Change Fed vs Fasted [2, 9]: −15%
- Cmax, % Change Fed vs Fasted [2, 9]: −49%
- Tmax, % Change Fed vs Fasted [2, 9]: +500%
- Increase in Tmax, fed vs fasted ([2]; pirfenidone 801 mg dose, prior study): 500%
- Plasma IL-6 concentrations 4 hours after LPS [3, 10]: 8886 ± 5321 pg/mL
- Plasma IL-6 concentrations 1.5 hours after LPS [3, 10]: 25173 ± 10651 pg/mL
- Plasma IL-6 concentrations 4 hours after LPS [3, 11]: 4603 ± 2524 pg/mL
- Plasma IL-6 concentrations 1.5 hours after LPS [3, 11]: 26226 ± 8434 pg/mL
- Plasma IL-6 concentrations 4 hours after LPS [3, 12]: 2361 ± 1185 pg/mL
- Plasma IL-6 concentrations 1.5 hours after LPS [3, 12]: 18692 ± 9996 pg/mL
- Tolerability of single doses [4]: well tolerated
- Share of recovered drug material excreted as unchanged pirfenidone ([5]; urine): less than 1%
- Oral dose excreted in urine [5]: approximately 80%
- Fatigue frequency (TEAE rate) [6, 13]: ≤ 52.4 per 100PEY
- Nausea frequency (TEAE rate) [6, 13]: ≤ 62.1 per 100 PEY
- Patients with permanent treatment discontinuation due to adverse drug reactions ([6]; PASSPORT long-term observational safety study, Cottin et al. 2018): 28.7%
- Treatment discontinuation rate with predominant gastrointestinal side-effects ([6]; b281): > 25%
- Patients who had an adverse event ([6]; compassionate use program, Raghu & Thickett 2013): 44%
- Patients who experienced an adverse event [6, 14]: Approximately 73%
- Patients with gastrointestinal symptoms [6, 14]: 38%
- Patients with an ADR leading to discontinuation ([6]; patients aged <65 years): 7.5%
- Patients with an ADR leading to dose modification/interruption ([6]; patients aged <65 years): 18.0%
- Patients with an ADR leading to discontinuation ([6]; patients aged ≥80 years): 20.9%
- Patients with an ADR leading to dose modification/interruption ([6]; patients aged ≥80 years): 32.7%
- Elevations of AST and ALT levels to >3x ULN ([6]; phase III trials): 3.2%
- Loss of appetite [6, 15]: 17%
- Nausea/vomiting [6, 15]: 15%
- Share of reported AEs that were GI-related [6, 15]: 75%
- Accumulation after multiple dosing for 28 Days [7]: No accumulation
- Plasma TNFα concentrations 4 hours after LPS [8, 10]: 346 ± 83 pg/mL
- Plasma TNFα concentrations 1.5 hours after LPS [8, 10]: 46138 ± 20266 pg/mL
- Plasma TNFα concentrations 4 hours after LPS [8, 11]: 207 ± 92 pg/mL
- Plasma TNFα concentrations 1.5 hours after LPS [8, 11]: 22230 ± 16540 pg/mL
- Plasma TNFα concentrations 4 hours after LPS [8, 12]: 131 ± 32 pg/mL
- Plasma TNFα concentrations 1.5 hours after LPS [8, 12]: 11495 ± 10753 pg/mL
